From patent publication US6872727B1, “Polycyclic pyrimidine -2,4(1H,3H)-diones with functionalized alkyl residues at the 1- and/or 3-position(s); methods for their synthesis and pharmaceutical preparation” (Privates Institut fur Biomedizinische Forschung und Beratung, priority 1999, dated 2005)

Columns and labels:
[1] = molecular target: T1, human matrix metalloproteinase-2 (MMP-2; gelatinase A) (Homo sapiens, UniProt P08253); assay: Inhibition of human matrix metalloproteinase-2 (gelatinase A); assay type: biochemical; conditions: trypsin-activated MMP-2 from human dermal fibroblast culture supernatant; read-out: MMP-2 (50% inhibition)
T1 construct: to prepare the enzymatically active mature form of the enzyme; endogenous in cells; host or cells: human dermal fibroblasts (secreted into culture supernatant)
T1 sequence (P08253 110-660): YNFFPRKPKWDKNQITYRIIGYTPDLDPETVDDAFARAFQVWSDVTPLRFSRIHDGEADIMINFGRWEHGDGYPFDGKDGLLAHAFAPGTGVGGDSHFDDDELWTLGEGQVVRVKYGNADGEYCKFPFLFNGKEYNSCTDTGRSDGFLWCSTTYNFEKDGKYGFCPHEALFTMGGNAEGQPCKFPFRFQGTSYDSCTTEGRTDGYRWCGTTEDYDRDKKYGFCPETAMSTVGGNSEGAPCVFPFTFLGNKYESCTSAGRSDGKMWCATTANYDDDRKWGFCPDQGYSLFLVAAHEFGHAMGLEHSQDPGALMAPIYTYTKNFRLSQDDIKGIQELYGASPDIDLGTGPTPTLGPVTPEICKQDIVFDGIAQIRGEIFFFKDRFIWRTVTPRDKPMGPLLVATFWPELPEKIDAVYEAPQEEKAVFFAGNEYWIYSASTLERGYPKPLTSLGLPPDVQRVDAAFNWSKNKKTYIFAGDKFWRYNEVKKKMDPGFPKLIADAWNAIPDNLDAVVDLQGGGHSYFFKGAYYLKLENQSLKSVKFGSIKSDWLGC
Description: MMP-2 is easily prepared by standard procedures from the culture medium of cultivated human fibroblasts in reasonable quantities, and is therefore readily available. […] A screening system based on the measurement of the proteolytic activity of MMP-2 was developed to analyse the inhibitory effects of the various inhibitors described in Table 1.
To this end, human dermal fibroblasts were obtained and maintained in culture using standard methods. The cell-free culture supernatant containing the secreted pro-MMP-2 was treated with trypsin. The trypsin was inactivated with the specific active-site serine proteinase inhibitor Nα-p-tosyl-L-lysine-chloromethylketone (TLCK), and the active MMP-2 was partially purified by gel filtration on Sepharose 4B. The isolated MMP-2 was identified and characterized by the use of a commercially available immunoassay.
A simple nonradioactive assay was developed to measure MMP-2 activity using gelatin as a substrate that allows both a large number of samples to be analysed in parallel and to generate kinetic data. Partially purified MMP-2 was incubated with a suitable dilution of gelatin under standardized conditions (time, buffer, pH, temperature, inhibitor, additives), and uncleaved gelatin was separated from degradation products by suction filtration through a nitrocellulose filter. High-molecular-weight gelatin is thereby bound to the nitrocellulose filter, and the low-molecular-weight gelatin-derived peptides pass through it. The nitrocellulose-bound gelatin can be stained with Ponceau S or Commassie Brilliant Blue protein stains, and the degree of staining quantified densitometrically using a commercially available electrophoresis gel documentation system supported by dedicated analytical software. The nitrocellulose filtration is conducted using a commercially available dot- or slot-blotting apparatus.
The gelatinase assay described here has been validated by comparison with results obtained with an established collagenase assay using radioactive or fluorescently labeled collagen as substrate.
The enzymatic cleavage of commercially available synthetic internally quenched fluorigenic peptide substrates such as 7-methylcoumarin-4-yl-acetyl-prolyleucyl-glycyl-leucyl-(dinitrophenyl-L-α,β-diaminopropionyl)-alanyl-arginylamide (Mca-Pro-Leu-Gly-Leu-Dap(Dnp)-Ala-Arg-NH2) at the scissile -Gly-Leu-peptide bond separates the fluorescent Mca group from the dinitrophenol quencher, resulting in a strong linear increase in fluorescence intensity that can be readily measured in a fluorimeter (λexitation328 nm, λemission 393 nm) over the first few minutes of the reaction. The specificity of the assay for matrix metalloproteinases is provided by the type I collagen-derived sequence -Pro-Leu-Gly-Leu- in the synthetic substrate, as well as by the incubation conditions. To test the efficacy of the synthetic collagenase/MMP inhibitors, the residual enzymatic activity remaining after an incubation of enzyme plus different amounts of inhibitor is measured at a fixed enzyme and substrate concentration. For each inhibitor, three test series at different fixed substrate concentrations were carried out. From the time-dependent increase in fluorescence intensity measured, the velocity (v) of the enzymatic activity can be calculated as increase in arbitrary fluorescence intensity units per minute. The inhibition constant Ki is calculated graphically by the method of Dixon (1953) by plotting the reciprocal of the reaction velocity 1/v on the ordinate, and the inhibitor concentration on the abscissa. The x-intercept of the linear plot is defined as minus K1 value.
1984 μl assay buffer (100 mM Tris-HCl pH 7,5, 100 mM NaCl, 10 mM CaCl2, 0,05% Brij 35) • 2 μl inhibitor dissolved in DMSO, or DMSO alone as a solvent control • 4 μl enzyme (MMP-2, MMP-9, or the catalytic domain of MMP-8) • 10 μl Mca-Pro-Leu-Gly-Leu-Dap(Dnp)-Ala-Arg-NH2 in DMSO Method • 1. […]

[2] = molecular target: Clostridium histolyticum collagenase (EC 3.4.24.3); assay: Inhibition of Clostridium histolyticum collagenase, spectrophotometric FALGPA assay; assay type: biochemical; conditions: chromogenic substrate FALGPA; read-out: C. histolyticum (50% inhibition)
Description: The activity of Clostidium histolyticum collagenase may be readily determined by a simple spectrophotometric assay using the synthetic chromogenic peptide substrate N-(3-[2-furyl]acryloyi)-leucine-glycine-proline-alanine (FALGPA; Van Hart, H. E. and Steinbrink, D. R. 1981, Anal. Biochem. 113, 356). The degree of inhibition of the degradation of this chromogenic substrate by the addition of the various test substances described in Table 1 may be easily quantified. The enzyme and substrate are commercially available.

SMILES | IC50 [1] | IC50 [2]
CC(S)CCn1c(=O)[nH]c(=O)c2ccccc21 (racemic) [Example 3, (R,S)-1-(3-mercaptobut-1-yl)-chinazolin-2,4(1H,3H)-dione] | 13.2 µM | 27.5 µM
CC(CCS)n1c(=O)[nH]c2ccccc2c1=O (racemic) [Example 18, (R,S)-3-[3-(1-methyl)-mercaptopropyl]-chinazolin-2,4(1H,3H)-dione] | 8.3 µM | 
O=c1[nH]c(=O)n(CCCS)c2ccccc12 [Example 4, 1-(3-mercaptopropyl)-chinazolin-2,4(1H,3H)-dione] | 5 µM | 53.8 µM
O=c1[nH]c(=O)n(CCS)c2ccccc12 [Example 5, 1-(2-mercaptoethyl)-chinazolin-2,4(1H,3H)-dione] | 61.3 µM | 39.2 µM
Cn1c(=O)c2ccccc2n(CCCS)c1=O [Example 7, 1-(3-mercaptoprop-1-yl)-3-methyl-chinazolin-2,4(1H,3H)-dione] | 6 µM | 11.5 µM
O=c1[nH]c2ccccc2c(=O)n1CCCCS [Example 12, 3-(4-mercaptobut-1-yl)-chinazolin-2,4(1H,3H)-dione] | 8.3 µM | 
Cn1c(=O)c2sccc2n(CCCS)c1=O [Example 14, 1-(3-mercaptoprop-1-yl)-3-methyl-thieno(3,2-d)-pyrimidin-2,4(1H,3H)-dione] | 20 µM | 
Cn1c(=O)c2sccc2n(CCS)c1=O [Example 17, 1-(2-mercaptoethyl)-3-methyl-thieno[3,2-d]-pyrimidine-2,4(1H,3H)-dione] | 20 µM | 
